From patent US20210116454A1, “METHODS FOR TREATING A HEMATOLOGICAL CANCER AND THE USE OF COMPANION BIOMARKERS FOR 2-(2,6-DIOXOPIPERIDIN-3-YL)-4-((2-FLUORO-4-((3-MORPHOLINOAZETIDIN-1-YL)METHYL)BENZYL)AMINO)ISOINDOLINE-1,3-DIONE” (CELGENE CORPORATION, priority 2019, published 2021)
Read-outs that look alike come from different tables or passages of the source.

Tests used:
Assay type in all cases: cell-based
ZFP91 = biological target: T1, ZFP91 (Homo sapiens, UniProt Q96JP5+Q96SW2); test: Enzyme fragment complementation (EFC) degradation assay, DF15 cells expressing ePL-tagged substrate; conditions: for Emax: remaining substrate; for DC50: read-out: ZFP91 degradation EC50
T1 construct: expressed in transfected cells; host or cells: DF15 cells
T1 sequence (Q96JP5 whole entry, the tested form may be a part): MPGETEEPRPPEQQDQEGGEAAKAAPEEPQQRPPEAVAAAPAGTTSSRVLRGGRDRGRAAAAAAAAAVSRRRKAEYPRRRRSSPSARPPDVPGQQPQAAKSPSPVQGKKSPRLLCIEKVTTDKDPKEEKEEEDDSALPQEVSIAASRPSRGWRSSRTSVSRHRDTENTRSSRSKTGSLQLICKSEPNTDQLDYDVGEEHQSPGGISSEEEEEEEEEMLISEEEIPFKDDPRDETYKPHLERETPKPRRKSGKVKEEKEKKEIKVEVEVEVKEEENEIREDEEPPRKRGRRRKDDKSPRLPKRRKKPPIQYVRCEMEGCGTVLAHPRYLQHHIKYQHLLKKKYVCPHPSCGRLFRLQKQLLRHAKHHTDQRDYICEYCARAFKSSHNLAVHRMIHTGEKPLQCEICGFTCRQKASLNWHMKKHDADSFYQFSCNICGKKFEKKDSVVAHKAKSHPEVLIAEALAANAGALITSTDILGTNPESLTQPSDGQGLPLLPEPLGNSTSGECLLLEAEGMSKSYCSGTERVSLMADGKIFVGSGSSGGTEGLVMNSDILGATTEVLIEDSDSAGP
T1 sequence (Q96SW2 whole entry, the tested form may be a part): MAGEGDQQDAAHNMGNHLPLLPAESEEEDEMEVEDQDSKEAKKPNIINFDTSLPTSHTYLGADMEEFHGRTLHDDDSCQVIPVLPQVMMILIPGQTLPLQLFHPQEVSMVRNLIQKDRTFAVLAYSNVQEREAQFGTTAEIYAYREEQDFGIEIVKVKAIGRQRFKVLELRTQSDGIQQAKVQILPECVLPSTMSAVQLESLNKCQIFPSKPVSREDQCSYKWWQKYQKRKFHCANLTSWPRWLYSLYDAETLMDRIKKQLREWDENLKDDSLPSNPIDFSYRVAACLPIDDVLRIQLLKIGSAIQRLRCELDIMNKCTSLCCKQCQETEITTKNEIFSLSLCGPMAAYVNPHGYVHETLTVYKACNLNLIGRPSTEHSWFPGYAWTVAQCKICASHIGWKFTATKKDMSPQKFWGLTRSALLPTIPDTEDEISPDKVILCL
T1 sequence (Q16531 whole entry partner, the tested form may be a part): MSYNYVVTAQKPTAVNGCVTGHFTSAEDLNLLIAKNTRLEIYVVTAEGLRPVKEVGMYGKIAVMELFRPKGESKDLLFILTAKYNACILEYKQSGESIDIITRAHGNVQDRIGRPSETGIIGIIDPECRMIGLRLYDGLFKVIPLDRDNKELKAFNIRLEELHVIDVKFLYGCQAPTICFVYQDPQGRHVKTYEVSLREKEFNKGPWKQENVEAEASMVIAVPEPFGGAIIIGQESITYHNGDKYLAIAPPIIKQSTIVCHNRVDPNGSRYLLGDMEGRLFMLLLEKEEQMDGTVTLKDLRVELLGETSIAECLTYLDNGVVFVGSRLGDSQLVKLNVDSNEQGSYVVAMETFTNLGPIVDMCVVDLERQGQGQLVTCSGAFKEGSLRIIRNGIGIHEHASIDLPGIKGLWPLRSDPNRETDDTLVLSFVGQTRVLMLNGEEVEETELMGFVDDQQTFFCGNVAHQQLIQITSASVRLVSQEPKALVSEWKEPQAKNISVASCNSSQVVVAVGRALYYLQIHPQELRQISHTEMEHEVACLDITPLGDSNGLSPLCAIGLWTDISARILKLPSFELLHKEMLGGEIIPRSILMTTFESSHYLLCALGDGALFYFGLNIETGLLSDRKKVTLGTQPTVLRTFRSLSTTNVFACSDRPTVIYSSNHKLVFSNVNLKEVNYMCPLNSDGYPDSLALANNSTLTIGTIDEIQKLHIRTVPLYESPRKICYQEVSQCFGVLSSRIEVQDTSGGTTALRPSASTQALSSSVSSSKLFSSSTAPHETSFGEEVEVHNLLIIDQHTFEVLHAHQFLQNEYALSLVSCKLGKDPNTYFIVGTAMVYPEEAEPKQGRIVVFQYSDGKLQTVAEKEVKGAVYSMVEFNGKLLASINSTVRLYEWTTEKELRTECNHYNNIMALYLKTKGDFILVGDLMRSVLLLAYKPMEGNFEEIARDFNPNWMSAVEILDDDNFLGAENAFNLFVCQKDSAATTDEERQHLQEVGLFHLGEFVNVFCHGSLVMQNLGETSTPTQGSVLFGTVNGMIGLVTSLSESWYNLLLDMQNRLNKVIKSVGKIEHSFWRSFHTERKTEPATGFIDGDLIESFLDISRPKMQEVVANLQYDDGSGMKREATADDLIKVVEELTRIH

[1] = tested on: KARPAS-422-Cas9 and SU-DHL-4-Cas9 knock-out cells; test: Flow cytometry-based cellular competition assay in substrate knock-out cells; conditions: 0.1, 1, 10 nM
Excerpt: Compound 1 induces autonomous cell killing activity in DLBCL cells in a cereblon-dependent manner. To investigate the consequence of loss of a single cereblon substrate, CRISPR/Cas9-mediated knockout of a cereblon substrate coupled with a flow cytometry-based cellular competition assay was utilized to assess relative cell fitness upon gene knock-out in six DLBCL cell lines: KARPAS-422, U-2932, RIVA, SU-DHL-16, HT, and SU-DHL-4 (FIG. 7, Panel A). To perform the flow cytometry-based competition assay, stable Cas9-expressing DLBCL cells were transduced with a control non-targeting sgRNA construct containing a GFP reporter (sgNT-1-GFP), or with a sgRNA construct targeting a gene of interest containing an RFP reporter (sgRNA-RFP). For targeted knock-out of each gene, two sgRNA sequences were used to knock-out Ikaros (sgIKZF1-1, sgIKZF1-2), Aiolos (sgIKZF3-1, sgIKZF3-2), and ZFP91 (sgZFP91-1, sgZFP91-3). For controls, two non-targeting sgRNAs (sgNT-1, sgNT-2), a sgRNA targeting a non-coding region of the genome (sgNC-1), and a sgRNA targeting an established essential gene ETF1 (sgETF1-1) were included. Following transduction with sgRNAs, cells were washed and mixed at a 1:1 ratio and the percentage of GFP^+ and RFP^+ cells was measured every three days for eighteen days (FIG. 7, panel B). […]

SU-DHL2 CRBN^-/- cells = test: Cell proliferation in CRBN^-/- (knock out) cells, 5 days; conditions: Homo sapiens, SU-DHL-2, 120 h
Excerpt: (§1) The activated B-cell (ABC) and MYC/BCL2 double expressor cell lines SU-DHL-2 and RIVA, the germinal center B-cell (GCB) and MYC/BCL2 double hit cell lines (and expressing BCL6) Karpas-422, SU-DHL-10, WSU-DLCL2, and the primary mediastinal B-cell lymphoma (PMBL) cell line Farage were infected with a CAS9 expressing lentivirus construct to generate the control CAS9 expressing cells. The Cas9 cells had wild type cereblon expression (CRBN^WT).
(§2) To generate the cereblon knock out cells (CRBN^−/−), the individual control CAS9 cells were infected with a construct expressing a subgenomic single guide RNA (sgRNA). Western blot analysis confirmed the absence of cereblon protein in the CRBN^−/− cells, relative to the levels of the housekeeping protein β-tubulin. The CRBN^WT and CRBN^−/− cells were treated with increasing concentrations of Compound 1 for five days.

SU-DHL10 CRBN^-/- cells = test: as above; conditions: Homo sapiens, 120 h
Excerpt: as §1, §2

[2] = tested on: bone marrow CD34+ cells from healthy donors; test: Ex vivo maturation of myeloid progenitors to neutrophils (flow cytometry)
Experimental: The effects of Compound 1 on maturation of myeloid progenitors to neutrophils were assessed in ex vivo cultures of bone marrow CD34+ cells from healthy donors and different dosing schedules were evaluated to gain insight into the schedule dependence of these events.
Myeloid differentiation was induced by adding stem cell factor (SCF), FMS-related tyrosine kinase 3 ligand (FLT3-L), and granulocyte colony stimulating factor (G-CSF) to culture media. Cell differentiation in the presence or absence of Compound 1 was evaluated at prespecified time points by flow cytometry as the percentage of cells in 5 subpopulations: (1) hematopoietic stem cells (HSC, CD34+/CD33−/CD11b−); (2) Stage I cells (CD34+/CD33+/CD11b−); (3) Stage II cells (CD34−/CD33+/CD11b−); (4) Stage III cells (CD34−/CD33+/CD11b+) and (5) Stage IV cells (CD34−/CD33−/CD11b+) cells (from immature to mature). Differentiation and viability were monitored during the complete assay every two or three days.
However, the viability of neutrophil precursors exposed to Compound 1 was not affected (FIG. 18).
Recovery of mature neutrophils after Compound 1 exposure was also evaluated in the system.

O=C1CC[C@H](N2C(=O)c3cccc(NCc4ccc(CN5CC(N6CCOCC6)C5)cc4F)c3C2=O)C(=O)N1 [Compound 1, (S)-2-(2,6-dioxopiperidin-3-yl)-4-((2-fluoro-4-((3-morpholinoazetidin-1-yl)methyl)benzyl)amino)isoindoline-1,3-dione]
Emax (ZFP91; DF15, DF15 ePL-ZFP91, 1 hour): 64% | Emax (ZFP91; DF15, DF15 ePL-ZFP91, 2 hours): 26.5% | Emax (ZFP91; DF15, DF15 ePL-ZFP91, 6 hours): 4% | Emax (ZFP91; DF15, DF15 ePL-ZFP91, 24 hours): 2.5% | DC50 (ZFP91; DF15 ePL-ZFP91, 1 hour): 1 nM | DC50 (ZFP91; DF15 ePL-ZFP91, 2 hours): 0.5 nM | DC50 (ZFP91; DF15 ePL-ZFP91, 6 hours): 0.2 nM | DC50 (ZFP91; DF15 ePL-ZFP91, 24 hours): 0.1 nM | RFP+/GFP+ ratio relative to DMSO-treated control cells ([1]; sgIKZF1 and sgIKZF3 knock-out cells): dose-dependent decrease | dose-dependent decrease in RFP+/GFP+ ratio ([1]; sgZFP91 cells): not observed | IC50 (SU-DHL2 CRBN^-/- cells): > 10000 nM | IC50 (SU-DHL10 CRBN^-/- cells): > 10000 nM | late-stage maturation of neutrophil progenitors ([2]; 14 or 5 days of exposure): blocked | Number of Days in Washout Period Required for Recovery to 50% of Stage IV Cells ([2]; 5 days treatment, 0.1 nM): 0 days | Number of Days in Washout Period Required for Recovery to 50% of Stage IV Cells ([2]; 5 days treatment, 1 nM): 1 days | Number of Days in Washout Period Required for Recovery to 50% of Stage IV Cells ([2]; 5 days treatment, 10 nM): 1 days | Number of Days in Washout Period Required for Recovery to 50% of Stage IV Cells ([2]; 5 days treatment, 1000 nM): 5 days | Number of Days in Washout Period Required for Recovery to 50% of Stage IV Cells ([2]; 14 days treatment, 0.1 nM): 0 days | Number of Days in Washout Period Required for Recovery to 50% of Stage IV Cells ([2]; 14 days treatment, 1 nM): 0 days | Number of Days in Washout Period Required for Recovery to 50% of Stage IV Cells ([2]; 14 days treatment, 100 nM): 4 days | Number of Days in Washout Period Required for Recovery to 50% of Stage IV Cells ([2]; 14 days treatment, 1000 nM): 4 days | viability of neutrophil precursors ([2]; Annexin V and 7-AAD, 14 or 5 days exposure): not affected | recovery of the proportion of mature neutrophils (Stage IV cells) from its nadir ([2]; after 1 week without Compound 1): ≥ 50% | recovery of Stage IV cells relative to Stage IV cell population in the DMSO control ([2]; one week without drug, all tested conditions): at least 50%
